Results as given in ChEMBL document CHEMBL5576125, “Discovery of Pyrazolopyrazines as Selective, Potent, and Mutant-Active MET Inhibitors with Intracranial Efficacy” (J Med Chem, 2024).

Tests used:
[1] = molecular target: T1, Hepatocyte growth factor receptor (Homo sapiens, UniProt P08581, D1228N); assay: Displacement of tracer 236 from N-terminal GST-tagged recombinant human MET D1228N mutant (956 to end residues) expressed in Sf9 insect cells incubated for 1 hr by TR-FRET assay
[2] = molecular target: T1, Hepatocyte growth factor receptor; assay: Inhibition of MET D1228N mutant (unknown origin) transfected in mouse NIH3T3 cells incubated for 1 hr by In-Cell Western assay; assay type: cell-based
[3] = molecular target: Hepatocyte growth factor receptor (Homo sapiens, UniProt P08581, Y1230H); assay: Displacement of tracer 236 from N-terminal GST-tagged recombinant human MET Y1230H mutant (956 to end residues) expressed in Sf9 insect cells incubated for 1 hr by TR-FRET assay
[4] = Displacement of tracer 236 from N-terminal GST-tagged recombinant human MET […] mutant (956 to end residues) expressed in Sf9 insect cells incubated for 1 hr by TR-FRET assay
[5] = molecular target: Hepatocyte growth factor receptor (Homo sapiens, UniProt P08581, F1200I); assay: Displacement of tracer 236 from N-terminal GST-tagged recombinant human MET F1200I mutant (956 to end residues) expressed in Sf9 insect cells incubated for 1 hr by TR-FRET assay
[6] = Metabolic stability in mouse hepatocytes assessed as clearance at 2 uM measured upto 120 mins by LC-MS/MS analysis; assay type: ADME, cell-based, Hepatocyte
[7] = Displacement of tracer 236 from N-terminal GST-tagged recombinant human MET exon 14 deletion mutant (956 to end residues) expressed in Sf9 insect cells incubated for 1 hr by TR-FRET assay
[8] = Metabolic stability in human hepatocytes assessed as clearance at 2 uM measured upto 120 mins by LC-MS/MS analysis; assay type: ADME, cell-based, Hepatocyte
[9] = Apparent permeability across apical to basolateral side in MDCKII-MDR1 cells at 1 uM incubated for 2 hrs in orbital shaker by LC-MS/MS analysis; assay type: ADME, cell-based, Canis lupus familiaris; conditions: dog, MDCK-MDR1

T1 sequence (P08581 25-1390 D1228N limits assumed): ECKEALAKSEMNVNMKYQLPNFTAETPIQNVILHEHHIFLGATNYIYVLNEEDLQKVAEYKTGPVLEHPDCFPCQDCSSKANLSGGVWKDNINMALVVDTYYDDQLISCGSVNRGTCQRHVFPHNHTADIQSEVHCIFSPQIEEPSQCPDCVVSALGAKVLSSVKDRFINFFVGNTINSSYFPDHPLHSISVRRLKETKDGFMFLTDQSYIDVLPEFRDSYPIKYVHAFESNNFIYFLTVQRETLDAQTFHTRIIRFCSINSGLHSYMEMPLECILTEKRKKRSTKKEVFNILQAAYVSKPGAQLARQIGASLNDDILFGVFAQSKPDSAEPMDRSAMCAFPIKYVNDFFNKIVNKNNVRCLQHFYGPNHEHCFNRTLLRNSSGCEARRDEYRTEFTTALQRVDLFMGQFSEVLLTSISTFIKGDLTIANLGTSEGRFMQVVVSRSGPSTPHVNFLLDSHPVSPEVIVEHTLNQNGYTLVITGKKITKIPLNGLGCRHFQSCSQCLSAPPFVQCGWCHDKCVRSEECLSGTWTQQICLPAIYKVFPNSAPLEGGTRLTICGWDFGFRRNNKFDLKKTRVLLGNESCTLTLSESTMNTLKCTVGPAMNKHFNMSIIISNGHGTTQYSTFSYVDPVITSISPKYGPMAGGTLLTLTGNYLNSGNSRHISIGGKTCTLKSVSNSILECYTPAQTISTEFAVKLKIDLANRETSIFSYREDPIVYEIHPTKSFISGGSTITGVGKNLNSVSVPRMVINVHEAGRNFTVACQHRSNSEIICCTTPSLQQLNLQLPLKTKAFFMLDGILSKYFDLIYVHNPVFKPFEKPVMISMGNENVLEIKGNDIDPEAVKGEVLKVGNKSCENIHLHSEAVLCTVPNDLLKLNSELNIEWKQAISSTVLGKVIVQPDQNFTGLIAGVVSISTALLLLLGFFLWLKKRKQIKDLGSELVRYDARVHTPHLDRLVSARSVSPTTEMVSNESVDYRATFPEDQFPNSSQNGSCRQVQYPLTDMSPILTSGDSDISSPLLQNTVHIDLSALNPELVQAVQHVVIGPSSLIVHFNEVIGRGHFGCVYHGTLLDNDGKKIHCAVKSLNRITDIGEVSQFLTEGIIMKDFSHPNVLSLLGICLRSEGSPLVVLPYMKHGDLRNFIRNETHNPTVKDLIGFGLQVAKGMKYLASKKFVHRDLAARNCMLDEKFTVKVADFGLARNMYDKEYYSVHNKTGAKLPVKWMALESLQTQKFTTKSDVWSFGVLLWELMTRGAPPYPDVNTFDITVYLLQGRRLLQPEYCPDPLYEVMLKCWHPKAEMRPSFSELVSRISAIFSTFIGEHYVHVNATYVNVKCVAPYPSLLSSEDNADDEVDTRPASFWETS
Hepatocyte growth factor receptor (Homo sapiens, UniProt P08581, Y1230H), sequence (P08581 25-1390 Y1230H limits assumed): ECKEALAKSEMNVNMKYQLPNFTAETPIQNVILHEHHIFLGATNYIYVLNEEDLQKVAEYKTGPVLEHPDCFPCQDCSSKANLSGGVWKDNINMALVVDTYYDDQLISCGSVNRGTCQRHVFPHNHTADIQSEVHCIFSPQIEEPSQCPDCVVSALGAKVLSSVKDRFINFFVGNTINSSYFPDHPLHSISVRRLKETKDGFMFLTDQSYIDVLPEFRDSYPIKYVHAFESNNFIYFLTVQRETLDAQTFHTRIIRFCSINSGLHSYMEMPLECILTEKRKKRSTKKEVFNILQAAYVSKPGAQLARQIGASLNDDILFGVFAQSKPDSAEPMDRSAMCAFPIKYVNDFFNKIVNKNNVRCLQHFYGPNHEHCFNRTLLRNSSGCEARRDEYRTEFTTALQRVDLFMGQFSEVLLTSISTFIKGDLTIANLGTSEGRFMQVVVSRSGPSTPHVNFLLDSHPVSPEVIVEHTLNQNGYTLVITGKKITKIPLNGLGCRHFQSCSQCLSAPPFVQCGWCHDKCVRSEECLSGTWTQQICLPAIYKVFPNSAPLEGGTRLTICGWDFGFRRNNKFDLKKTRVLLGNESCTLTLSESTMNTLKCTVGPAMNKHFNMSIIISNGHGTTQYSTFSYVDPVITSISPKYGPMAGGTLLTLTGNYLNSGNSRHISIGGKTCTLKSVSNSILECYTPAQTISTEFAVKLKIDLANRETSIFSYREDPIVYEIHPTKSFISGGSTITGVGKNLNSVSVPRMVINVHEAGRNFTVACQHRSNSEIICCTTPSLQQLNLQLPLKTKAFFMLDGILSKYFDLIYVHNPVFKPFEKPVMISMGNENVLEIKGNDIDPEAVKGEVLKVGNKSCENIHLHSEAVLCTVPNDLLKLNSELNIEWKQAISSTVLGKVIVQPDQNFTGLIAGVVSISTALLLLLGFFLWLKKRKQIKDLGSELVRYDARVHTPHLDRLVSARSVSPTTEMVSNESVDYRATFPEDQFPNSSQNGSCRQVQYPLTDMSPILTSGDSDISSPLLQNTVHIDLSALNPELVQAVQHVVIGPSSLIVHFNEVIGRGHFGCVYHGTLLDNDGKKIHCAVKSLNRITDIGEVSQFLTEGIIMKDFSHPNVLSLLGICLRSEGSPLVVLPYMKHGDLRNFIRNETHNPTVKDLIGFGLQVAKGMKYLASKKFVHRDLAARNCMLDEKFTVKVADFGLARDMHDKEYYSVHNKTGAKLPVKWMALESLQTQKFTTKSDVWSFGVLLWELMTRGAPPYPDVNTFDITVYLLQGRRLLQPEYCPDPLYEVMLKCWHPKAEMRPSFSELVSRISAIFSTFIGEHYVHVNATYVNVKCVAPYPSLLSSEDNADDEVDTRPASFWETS

Row | SMILES | IC50 [1] | IC50 [2] | IC50 [3] | IC50 [4] | IC50 [5] | CLhep predicted at 2 µM [6] | IC50 [7] | CLhep predicted at 2 µM [8] | Papp A→B at 2 h, 1 µM [9]
1 | Cn1ccc(CCN(c2cc(F)c(NC(=O)c3ccnn(-c4ccc(F)cn4)c3=O)cc2F)c2cccn3nccc23)n1 | 4 nM | 25 nM | 2 nM | 19 nM | 58 nM |  |  |  | 
2 | COc1cc(N(c2cc(F)c(NC(=O)c3ccnn(-c4ccc(F)cn4)c3=O)cc2F)[C@H]2C[C@H](c3ccn(C)n3)C2)c2ccnn2c1 | 11 nM | 22 nM | 17 nM | 32 nM | 54 nM | 38 mL/min/kg | 16 nM | 12 mL/min/kg | 
3 | Cc1cc(N(c2cc(F)c(NC(=O)c3ccnn(-c4ccc(F)cn4)c3=O)cc2F)[C@H]2C[C@H](c3ccn(C)n3)C2)c(F)cn1 | 6 nM | 40 nM | 5 nM | 36 nM | 98 nM | 31 mL/min/kg |  | 9 mL/min/kg | 15 ×10⁻⁶ cm/s
4 | Cn1ccc([C@H]2C[C@H](N(c3cc(F)c(NC(=O)c4ccnn(-c5ccc(F)cn5)c4=O)cc3F)c3cc(F)cn4nccc34)C2)n1 | 33 nM | 37 nM | 11 nM | 41 nM | 278 nM | 15 mL/min/kg | 13 nM | 3 mL/min/kg | 2 ×10⁻⁶ cm/s
5 | O=C(Nc1cc(F)c(Oc2cccn3nccc23)cc1F)c1ccnn(-c2ccc(F)cc2)c1=O | 165 nM | 1680 nM | 84 nM | 717 nM | 5000 nM |  | 27 nM |  | 
6 | CC(C)(C#N)CN(c1cc(F)c(NC(=O)c2ccnn(-c3ccc(F)cn3)c2=O)cc1F)c1cccn2nccc12 | 5 nM | 57 nM | 2 nM | 39 nM | 96 nM |  | 3 nM |  | 
7 | CC(C)N(c1cc(F)c(NC(=O)c2ccnn(-c3ccc(F)cc3)c2=O)cc1F)c1cccn2nccc12 | 86 nM | 336 nM | 92 nM | 298 nM | 763 nM |  | 71 nM |  | 
8 | Cn1ccc([C@H]2C[C@H](N(c3cc(F)c(NC(=O)c4ccnn(-c5ccc(F)cn5)c4=O)cc3Cl)c3nccn4nccc34)C2)n1 | 9 nM | 28 nM | 7 nM | 36 nM | 147 nM | 31 mL/min/kg | 6 nM | 9 mL/min/kg | 5 ×10⁻⁶ cm/s
9 | CO[C@H]1C[C@@H](N(c2cc(F)c(NC(=O)c3ccnn(-c4ccc(F)cn4)c3=O)cc2F)c2cccn3nccc23)C1 | 7 nM | 39 nM | 6 nM | 46 nM | 171 nM |  | 4 nM |  | 
